Measured values reported in ChEMBL document CHEMBL1151433, “National and regional assessment of antimicrobial resistance among community-acquired respiratory tract pathogens identified in a 2005-2006 U.S. Faropenem surveillance study” (2007).
≈ marks a conversion by molar mass, not a printed value.

How the values were obtained:
[1] = system: Streptococcus pneumoniae; experiment: Antibacterial activity against Streptococcus pneumoniae ATCC 49619 isolated from respiratory tract infected outpatients after 20 to 24 hrs by broth microdilution method; format: functional
[2] = system: Streptococcus pneumoniae; experiment: Antibacterial activity against Streptococcus pneumoniae ATCC 49619 isolated from respiratory tract infected patients within 2 years of age after 20 to 24 hrs by broth microdilution method; format: functional
[3] = system: Streptococcus pneumoniae; experiment: Antibacterial activity against Streptococcus pneumoniae ATCC 49619 isolated from respiratory tract infected patients with 15 to 64 years of age assessed as resistant isolates after 20 to 24 hrs by broth microdilution method; format: functional
[4] = system: Haemophilus influenzae; experiment: Antibacterial activity against beta lactamase-positive Haemophilus influenzae […] isolated from respiratory tract infected patients assessed as susceptible isolates after 20 to 24 hrs by broth microdilution method; format: functional, ATCC 49247
[5] = system: Streptococcus pneumoniae; experiment: Antibacterial activity against Streptococcus pneumoniae ATCC 49619 isolated from respiratory tract infected inpatients assessed as resistant isolates after 20 to 24 hrs by broth microdilution method; format: functional
[6] = system: Streptococcus pneumoniae; experiment: Antibacterial activity against Streptococcus pneumoniae ATCC 49619 isolated from respiratory tract infected patients after 20 to 24 hrs by broth microdilution method; format: functional
[7] = system: Streptococcus pneumoniae; experiment: Antibacterial activity against penicillin-susceptible Streptococcus pneumoniae ATCC 49619 isolated from respiratory tract infected patients assessed as susceptible isolates after 20 to 24 hrs by broth microdilution method; format: functional
[8] = system: Haemophilus influenzae; experiment: Antibacterial activity against Haemophilus influenzae […] isolated from respiratory tract infected patients assessed as susceptible isolates after 20 to 24 hrs by broth microdilution method; format: functional, ATCC 49247
[9] = system: Streptococcus pneumoniae; experiment: Antibacterial activity against Streptococcus pneumoniae ATCC 49619 isolated from respiratory tract infected female patients assessed as resistant isolates after 20 to 24 hrs by broth microdilution method; format: functional
[10] = system: Streptococcus pneumoniae; experiment: Antibacterial activity against penicillin-intermediate Streptococcus pneumoniae ATCC 49619 isolated from respiratory tract infected patients assessed as resistant isolates after 20 to 24 hrs by broth microdilution method; format: functional
[11] = system: Streptococcus pneumoniae; experiment: Antibacterial activity against Streptococcus pneumoniae ATCC 49619 isolated from respiratory tract infected patients with 6 to 14 years of age after 20 to 24 hrs by broth microdilution method; format: functional
[12] = system: Streptococcus pneumoniae; experiment: Antibacterial activity against Streptococcus pneumoniae ATCC 49619 isolated from respiratory tract infected patients more than 65 years of age assessed as resistant isolates after 20 to 24 hrs by broth microdilution method; format: functional
[13] = system: Streptococcus pneumoniae; experiment: Antibacterial activity against Streptococcus pneumoniae ATCC 49619 isolated from respiratory tract infected patients with 6 to 14 years of age assessed as resistant isolates after 20 to 24 hrs by broth microdilution method; format: functional
[14] = system: Streptococcus pneumoniae; experiment: Antibacterial activity against penicillin-intermediate Streptococcus pneumoniae ATCC 49619 isolated from respiratory tract infected patients after 20 to 24 hrs by broth microdilution method; format: functional
[15] = system: Streptococcus pneumoniae; experiment: Antibacterial activity against Streptococcus pneumoniae ATCC 49619 isolated from respiratory tract infected patients within 2 years of age assessed as resistant isolates after 20 to 24 hrs by broth microdilution method; format: functional
[16] = system: Haemophilus influenzae; experiment: Antibacterial activity against Haemophilus influenzae […] isolated from respiratory tract infected patients after 20 to 24 hrs by broth microdilution method; format: functional; conditions: ATCC 49247
[17] = system: Streptococcus pneumoniae; experiment: Antibacterial activity against Streptococcus pneumoniae ATCC 49619 isolated from respiratory tract infected male patients after 20 to 24 hrs by broth microdilution method; format: functional
[18] = system: Streptococcus pneumoniae; experiment: Antibacterial activity against Streptococcus pneumoniae ATCC 49619 isolated from respiratory tract infected male patients assessed as resistant isolates after 20 to 24 hrs by broth microdilution method; format: functional
[19] = system: Streptococcus pneumoniae; experiment: Antibacterial activity against Streptococcus pneumoniae ATCC 49619 isolated from respiratory tract infected patients more than 65 years of age after 20 to 24 hrs by broth microdilution method; format: functional
[20] = system: Streptococcus pneumoniae; experiment: Antibacterial activity against Streptococcus pneumoniae ATCC 49619 isolated from respiratory tract infected outpatients assessed as resistant isolates after 20 to 24 hrs by broth microdilution method; format: functional
[21] = system: Haemophilus influenzae; experiment: Antibacterial activity against beta lactamase-negative Haemophilus influenzae […] isolated from respiratory tract infected patients after 20 to 24 hrs by broth microdilution method; format: functional; conditions: ATCC 49247
[22] = system: Haemophilus influenzae; experiment: Antibacterial activity against beta lactamase-positive Haemophilus influenzae […] isolated from respiratory tract infected patients after 20 to 24 hrs by broth microdilution method; format: functional; conditions: ATCC 49247
[23] = system: Streptococcus pneumoniae; experiment: Antibacterial activity against Streptococcus pneumoniae ATCC 49619 isolated from respiratory tract infected inpatients after 20 to 24 hrs by broth microdilution method; format: functional
[24] = system: Streptococcus pneumoniae; experiment: Antibacterial activity against Streptococcus pneumoniae ATCC 49619 isolated from respiratory tract infected patients with 3 to 5 years of age assessed as resistant isolates after 20 to 24 hrs by broth microdilution method; format: functional
[25] = system: Streptococcus pneumoniae; experiment: Antibacterial activity against penicillin-susceptible Streptococcus pneumoniae ATCC 49619 isolated from respiratory tract infected patients after 20 to 24 hrs by broth microdilution method; format: functional
[26] = system: Streptococcus pneumoniae; experiment: Antibacterial activity against Streptococcus pneumoniae ATCC 49619 isolated from respiratory tract infected patients assessed as resistant isolates after 20 to 24 hrs by broth microdilution method; format: functional
[27] = system: Streptococcus pneumoniae; experiment: Antibacterial activity against penicillin-resistant Streptococcus pneumoniae ATCC 49619 isolated from respiratory tract infected patients after 20 to 24 hrs by broth microdilution method; format: functional
[28] = system: Streptococcus pneumoniae; experiment: Antibacterial activity against Streptococcus pneumoniae ATCC 49619 isolated from respiratory tract infected patients with 3 to 5 years of age after 20 to 24 hrs by broth microdilution method; format: functional
[29] = system: Haemophilus influenzae; experiment: Antibacterial activity against beta lactamase-negative Haemophilus influenzae […] isolated from respiratory tract infected patients assessed as susceptible isolates after 20 to 24 hrs by broth microdilution method; format: functional
[30] = system: Streptococcus pneumoniae; experiment: Antibacterial activity against Streptococcus pneumoniae ATCC 49619 isolated from respiratory tract infected female patients after 20 to 24 hrs by broth microdilution method; format: functional
[31] = system: Streptococcus pneumoniae; experiment: Antibacterial activity against penicillin-resistant Streptococcus pneumoniae ATCC 49619 isolated from respiratory tract infected patients assessed as susceptible isolates after 20 to 24 hrs by broth microdilution method; format: functional
[32] = system: Streptococcus pneumoniae; experiment: Antibacterial activity against Streptococcus pneumoniae ATCC 49619 isolated from respiratory tract infected patients assessed as susceptible isolates after 20 to 24 hrs by broth microdilution method; format: functional
[33] = system: Streptococcus pneumoniae; experiment: Antibacterial activity against Streptococcus pneumoniae ATCC 49619 isolated from respiratory tract infected patients with 15 to 64 years of age after 20 to 24 hrs by broth microdilution method; format: functional
[34] = system: Streptococcus pneumoniae; experiment: Antibacterial activity against penicillin-resistant Streptococcus pneumoniae ATCC 49619 isolated from respiratory tract infected patients assessed as resistant isolates after 20 to 24 hrs by broth microdilution method; format: functional
[35] = system: Streptococcus pneumoniae; experiment: Antibacterial activity against penicillin-susceptible Streptococcus pneumoniae ATCC 49619 isolated from respiratory tract infected patients assessed as resistant isolates after 20 to 24 hrs by broth microdilution method; format: functional
[36] = system: Moraxella catarrhalis; experiment: Antibacterial activity against Moraxella catarrhalis isolated from respiratory tract infected patients after 20 to 24 hrs by broth microdilution method; format: functional
[37] = system: Streptococcus pneumoniae; experiment: Antibacterial activity against penicillin-intermediate Streptococcus pneumoniae ATCC 49619 isolated from respiratory tract infected patients assessed as susceptible isolates after 20 to 24 hrs by broth microdilution method; format: functional

CC[C@H]1OC(=O)[C@H](C)[C@@H](O[C@H]2C[C@@](C)(OC)[C@@H](O)[C@H](C)O2)[C@H](C)[C@@H](O[C@@H]2O[C@H](C)C[C@H](N(C)C)[C@H]2O)[C@](C)(O)C[C@@H](C)CN(C)[C@H](C)[C@@H](O)[C@]1(C)O [AZITHROMYCIN]
MIC90 [1]: > 16 µg/mL
MIC90 [2]: > 16 µg/mL
Activity [3]: 27.6%
Activity [4]: 98.1%
Activity [5]: 33%
MIC50 [6]: ≤ 0.12 µg/mL
MIC90 [6]: > 16 µg/mL
Activity [7]: 87.9%
Activity [8]: 98.7%
Activity [9]: 31.2%
Activity [10]: 64.5%
MIC90 [11]: > 16 µg/mL
Activity [12]: 33.8%
Activity [13]: 36%
MIC50 [14]: 4 µg/mL (≈ 5.34 µM)
MIC90 [14]: > 16 µg/mL
Activity [15]: 50.5%
MIC50 [16]: 1 µg/mL (≈ 1.34 µM)
MIC90 [16]: 2 µg/mL (≈ 2.67 µM)
MIC90 [17]: > 16 µg/mL
Activity [18]: 36%
MIC90 [19]: > 16 µg/mL
Activity [20]: 34.8%
MIC50 [21]: 1 µg/mL (≈ 1.34 µM)
MIC90 [21]: 2 µg/mL (≈ 2.67 µM)
MIC50 [22]: 1 µg/mL (≈ 1.34 µM)
MIC90 [22]: 2 µg/mL (≈ 2.67 µM)
MIC90 [23]: > 16 µg/mL
Activity [24]: 42.4%
MIC50 [25]: ≤ 0.12 µg/mL
MIC90 [25]: 4 µg/mL (≈ 5.34 µM)
Activity [26]: 34%
MIC50 [27]: 32 µg/mL (≈ 42.7 µM)
MIC90 [27]: > 16 µg/mL
MIC90 [28]: > 16 µg/mL
Activity [29]: 98.9%
MIC90 [30]: > 16 µg/mL
Activity [31]: 19.4%
Activity [32]: 65.5%
MIC90 [33]: > 16 µg/mL
Activity [34]: 80.6%
Activity [35]: 11.3%
MIC50 [36]: ≤ 0.12 µg/mL
MIC90 [36]: ≤ 0.12 µg/mL
Activity [37]: 35.5%

C[C@H]1COc2c(N3CCN(C)CC3)c(F)cc3c(=O)c(C(=O)O)cn1c23.C[C@H]1COc2c(N3CCN(C)CC3)c(F)cc3c(=O)c(C(=O)O)cn1c23.O [LEVOFLOXACIN]
MIC90 [1]: 1 µg/mL
MIC90 [2]: 1 µg/mL
Activity [3]: 0.4%
Activity [4]: 100%
Activity [5]: 0.1%
MIC50 [6]: 1 µg/mL
MIC90 [6]: 1 µg/mL
Activity [7]: 99.7%
Activity [8]: 99.9%
Activity [9]: 0.3%
Activity [10]: 0.9%
MIC90 [11]: 1 µg/mL
Activity [12]: 1.4%
Activity [13]: 0%
MIC50 [14]: 1 µg/mL
MIC90 [14]: 1 µg/mL
Activity [15]: 0%
MIC50 [16]: ≤ 0.06 µg/mL
MIC90 [16]: ≤ 0.06 µg/mL
MIC90 [17]: 1 µg/mL
Activity [18]: 0.8%
MIC90 [19]: 1 µg/mL
Activity [20]: 0.9%
MIC50 [21]: ≤ 0.06 µg/mL
MIC90 [21]: ≤ 0.06 µg/mL
MIC50 [22]: ≤ 0.06 µg/mL
MIC90 [22]: ≤ 0.06 µg/mL
MIC90 [23]: 1 µg/mL
Activity [24]: 0%
MIC50 [25]: 1 µg/mL
MIC90 [25]: 1 µg/mL
Activity [26]: 0.6%
MIC50 [27]: 1 µg/mL
MIC90 [27]: 1 µg/mL
MIC90 [28]: 1 µg/mL
Activity [29]: 99.7%
MIC90 [30]: 1 µg/mL
Activity [31]: 98%
Activity [32]: 99.2%
MIC90 [33]: 1 µg/mL
Activity [34]: 1.6%
Activity [35]: 0.2%
MIC50 [36]: ≤ 0.06 µg/mL
MIC90 [36]: ≤ 0.06 µg/mL
Activity [37]: 98.8%
